SMILES strings stand for the structures.

Data set [1] addresses T1, Mitogen-activated protein kinase 14 (Homo sapiens, UniProt Q16539). Put plainly: Inhibition of human p38alpha using MBP as substrate by [gamma-33P]-ATP assay.
Data set [2] is described as follows: Stability in rat plasma assessed as remaining compound at 10 uM incubated for 30 mins by LC-MS analysis. Format: ADME, cell-free. Conditions: read-out: Stability.
Data set [3] can be described thus: Stability in human plasma assessed as remaining compound at 10 uM incubated for 120 mins by LC-MS analysis. Type of data set: ADME, cell-free. Conditions: read-out: Stability.
Data set [4] in a line: Stability in rat plasma assessed as remaining compound at 10 uM incubated for 120 mins by LC-MS analysis. To be noted: read-out: Stability. Format: ADME, cell-free.
A short description of data set [5]: Stability in human plasma assessed as remaining compound at 10 uM incubated for 30 mins by LC-MS analysis. To be noted: read-out: Stability. Type of data set: ADME, cell-free.
The target of data set [6] is Fibroblast growth factor receptor 1 (Homo sapiens) (UniProt P11362). Put plainly: Inhibition of human FGFR1 at 10 uM using KKKSPGEYVNIEFG as substrate by [gamma-33P]-ATP assay relative to control.
The target in data set [7] is RAC-alpha serine/threonine-protein kinase (Homo sapiens) (UniProt P31749). The data set is described as follows: Inhibition of human AKT1 at 10 uM using KGSGSGRPRTSSFAEG as substrate by [gamma-33P]-ATP assay relative to control.
For data set [8], the target named is Macrophage colony-stimulating factor 1 receptor (Homo sapiens) (UniProt P07333). The data set is described as follows: Inhibition of human FMS at 10 uM using poly[Glu:Tyr] (4:1) as substrate by [gamma-33P]-ATP assay relative to control.
Data set [9] concerns the target Receptor-type tyrosine-protein kinase FLT3 (Homo sapiens) (UniProt P36888). The data set is described as follows: Inhibition of human FLT3 at 10 uM using EAIYAAPFAKKK as substrate by [gamma-33P]-ATP assay relative to control.
In data set [10] the target is Aurora kinase A (Homo sapiens) (UniProt O14965). The data set is described as follows: Inhibition of human Aurora A at 10 uM using [H-LRRASLG] as substrate by [gamma-33P]-ATP assay relative to control.
In data set [11] the target is T1, Mitogen-activated protein kinase 14. The data set is described as follows: Inhibition of recombinant Nanoluc-tagged p38alpha (unknown origin) expressed in HEK293 cells incubated for 2 to 3 mins by NanoBRET assay. Format: cell-based. In general terms: In BRET a luciferase serves as donor, and the signal depends on an acceptor being close.
Data set [12] has as its system Serine/threonine-protein kinase B-raf (Homo sapiens), P15056 [V600E]. Put plainly: Inhibition of human BRAF V600E mutant at 10 uM using MEK1 (K97R) as substrate by [gamma-33P]-ATP assay relative to control.
Data set [13] addresses Dual specificity mitogen-activated protein kinase kinase 1 (Homo sapiens) (UniProt Q02750). The data set is described as follows: Inhibition of human MEK1 at 10 uM using ERK2 as substrate by [gamma-33P]-ATP assay relative to control.
Data set [14] addresses Mitogen-activated protein kinase 8 (Homo sapiens) (UniProt P45983). Put plainly: Inhibition of human JNK1 at 10 uM using ATF2 as substrate by [gamma-33P]-ATP assay relative to control.
In data set [15] the target is PI3-kinase p110-alpha/p85-alpha (Homo sapiens) (UniProt P27986+P42336). The data set is described as follows: Inhibition of human PI3K (p110alpha/p85alpha) at 10 uM using PI as substrate by ADP-Glo Assay relative to control. Type of data set: protein-complex assay.
Data set [16] concerns the target Mitogen-activated protein kinase 1 (Homo sapiens) (UniProt P28482). Put plainly: Inhibition of human ERK2 at 10 uM using MBP as substrate by [gamma-33P]-ATP assay relative to control.
The target in data set [17] is Serine/threonine-protein kinase A-Raf (Homo sapiens) (UniProt P10398). Put plainly: Inhibition of human ARAF at 10 uM using MEK1 as substrate by [gamma-33P]-ATP assay relative to control.
In data set [18] the target is Mast/stem cell growth factor receptor Kit (Homo sapiens) (UniProt P10721). Put plainly: Inhibition of human c-KIT at 10 uM using poly[Glu:Tyr] (4:1) as substrate by [gamma-33P]-ATP assay relative to control.
Data set [19] has as its target Receptor tyrosine-protein kinase erbB-4 (Homo sapiens) (UniProt Q15303). Put plainly: Inhibition of human ERBB4 at 10 uM using poly[Glu:Tyr] (4:1) as substrate by [gamma-33P]-ATP assay relative to control.
Data set [20] concerns the target RAF proto-oncogene serine/threonine-protein kinase (Homo sapiens, UniProt P04049). Put plainly: Inhibition of human RAF1 at 10 uM using MEK1 (K97R) as substrate by [gamma-33P]-ATP assay relative to control.
The target in data set [21] is Tyrosine-protein kinase ABL1 (Homo sapiens) (UniProt P00519). Put plainly: Inhibition of human ABL1 at 10 uM using EAIYAAPFAKKK as substrate by [gamma-33P]-ATP assay relative to control.
Data set [22] deals with Serine/threonine-protein kinase B-raf (Homo sapiens) (UniProt P15056). Put plainly: Inhibition of human BRAF at 10 uM using MEK1 (K97R) as substrate by [gamma-33P]-ATP assay relative to control.
Data set [23] concerns the target ALK tyrosine kinase receptor (Homo sapiens) (UniProt Q9UM73). Put plainly: Inhibition of human ALK at 10 uM using poly[Glu:Tyr] (4:1) as substrate by [gamma-33P]-ATP assay relative to control.
Data set [24] has as its target Epidermal growth factor receptor (Homo sapiens) (UniProt P00533). The data set is described as follows: Inhibition of human EGFR at 10 uM using poly[Glu:Tyr] (4:1) as substrate by [gamma-33P]-ATP assay relative to control.
For data set [25], the target named is Vascular endothelial growth factor receptor 2 (Homo sapiens) (UniProt P35968). Put plainly: Inhibition of human KDR at 10 uM using poly[Glu:Tyr] (4:1) as substrate by [gamma-33P]-ATP assay relative to control.
The target in data set [26] is T1, Mitogen-activated protein kinase 14. Put plainly: Inhibition of human p38alpha at 10 uM using MBP as substrate by [gamma-33P]-ATP assay relative to control.
The target of data set [27] is DNA-dependent protein kinase catalytic subunit (Homo sapiens) (UniProt P78527). Put plainly: Inhibition of human DNAPK at 10 uM using EPPLSQEAFADLWKK as substrate by […]-ATP assay relative to control.
The target of data set [28] is Platelet-derived growth factor receptor beta (Homo sapiens) (UniProt P09619). The data set is described as follows: Inhibition of human PDGFRbeta at 10 uM using poly[Glu:Tyr] (4:1) as substrate by [gamma-33P]-ATP assay relative to control.
The target of data set [29] is Tyrosine-protein kinase JAK1 (Homo sapiens) (UniProt P23458). The data set is described as follows: Inhibition of human JAK1 at 10 uM using poly[Glu:Tyr] (4:1) as substrate by [gamma-33P]-ATP assay relative to control.
Data set [30] deals with Tyrosine-protein kinase JAK2 (Homo sapiens) (UniProt O60674). The data set is described as follows: Inhibition of human JAK2 at 10 uM using poly[Glu:Tyr] (4:1) as substrate by [gamma-33P]-ATP assay relative to control.
The target of data set [31] is Hepatocyte growth factor receptor (Homo sapiens, UniProt P08581). Put plainly: Inhibition of human c-MET at 10 uM using KKKSPGEYVNIEFG as substrate by [gamma-33P]-ATP assay relative to control.
The target in data set [32] is Receptor tyrosine-protein kinase erbB-2 (Homo sapiens) (UniProt P04626). Put plainly: Inhibition of human ERBB2 at 10 uM using poly[Glu:Tyr] (4:1) as substrate by [gamma-33P]-ATP assay relative to control.
Data set [33] relates to Rattus norvegicus. Put plainly: Antiinflammatory activity in Sprague-Dawley rat assessed as inhibition of carrageenan-induced paw edema at 50 mg/kg, ip administered 1 hr before carrageenan stimulation and measured after 3 hrs relative to control. Type of data set: functional. In general terms: Carrageenan injected into the paw causes an acute inflammation.
For data set [34], the system named is THP-1. Put plainly: Inhibition of LPS-induced TNFalpha production in human THP1 cells incubated for 1 hr followed by LPS stimulation and measured after 4 hrs by TR-FRET method. Type of data set: functional, cell-based.
In data set [35] the target is T1, Mitogen-activated protein kinase 14. The data set is described as follows: Inhibition of p38alpha (unknown origin).

T1 sequence (Q16539 whole entry): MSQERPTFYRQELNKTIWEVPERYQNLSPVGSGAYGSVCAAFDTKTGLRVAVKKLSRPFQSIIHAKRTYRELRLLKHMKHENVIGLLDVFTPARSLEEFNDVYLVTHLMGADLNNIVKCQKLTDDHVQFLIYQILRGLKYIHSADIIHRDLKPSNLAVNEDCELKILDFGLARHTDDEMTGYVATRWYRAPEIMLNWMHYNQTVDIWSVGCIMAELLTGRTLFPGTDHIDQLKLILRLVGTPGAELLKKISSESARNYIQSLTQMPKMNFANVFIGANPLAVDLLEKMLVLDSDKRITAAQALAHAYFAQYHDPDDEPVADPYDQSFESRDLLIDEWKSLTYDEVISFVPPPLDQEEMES
Sequence of Epidermal growth factor receptor (Homo sapiens) (P00533 whole entry): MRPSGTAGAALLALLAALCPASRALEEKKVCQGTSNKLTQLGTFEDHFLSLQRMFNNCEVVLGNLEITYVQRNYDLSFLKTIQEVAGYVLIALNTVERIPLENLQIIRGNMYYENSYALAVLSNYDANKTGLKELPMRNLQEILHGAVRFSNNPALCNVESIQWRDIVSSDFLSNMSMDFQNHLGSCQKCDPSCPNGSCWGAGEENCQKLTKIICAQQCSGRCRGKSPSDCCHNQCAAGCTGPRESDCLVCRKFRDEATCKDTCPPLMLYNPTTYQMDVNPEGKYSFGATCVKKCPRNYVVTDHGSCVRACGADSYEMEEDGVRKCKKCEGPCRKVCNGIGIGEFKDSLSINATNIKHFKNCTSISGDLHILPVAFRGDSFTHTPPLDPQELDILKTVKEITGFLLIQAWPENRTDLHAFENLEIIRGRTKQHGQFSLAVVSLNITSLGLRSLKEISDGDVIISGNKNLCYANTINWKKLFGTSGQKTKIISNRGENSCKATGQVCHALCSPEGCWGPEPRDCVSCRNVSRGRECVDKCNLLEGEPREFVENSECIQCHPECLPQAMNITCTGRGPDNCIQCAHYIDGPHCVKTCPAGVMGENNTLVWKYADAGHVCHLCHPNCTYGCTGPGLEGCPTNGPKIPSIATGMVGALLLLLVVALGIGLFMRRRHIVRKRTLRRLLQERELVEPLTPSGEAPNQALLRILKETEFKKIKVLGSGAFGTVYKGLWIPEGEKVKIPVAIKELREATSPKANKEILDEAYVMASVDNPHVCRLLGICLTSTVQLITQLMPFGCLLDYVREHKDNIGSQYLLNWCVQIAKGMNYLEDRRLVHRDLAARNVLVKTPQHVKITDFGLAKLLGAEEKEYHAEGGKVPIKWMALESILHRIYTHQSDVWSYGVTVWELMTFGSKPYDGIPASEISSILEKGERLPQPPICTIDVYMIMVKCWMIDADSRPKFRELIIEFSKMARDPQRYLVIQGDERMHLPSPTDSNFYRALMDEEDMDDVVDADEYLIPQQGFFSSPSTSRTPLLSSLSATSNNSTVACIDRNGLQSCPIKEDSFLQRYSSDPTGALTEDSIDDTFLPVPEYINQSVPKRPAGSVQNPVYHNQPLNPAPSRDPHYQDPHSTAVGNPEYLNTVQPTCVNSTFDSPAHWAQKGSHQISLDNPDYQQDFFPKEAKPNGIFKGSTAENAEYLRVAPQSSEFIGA
Sequence of Macrophage colony-stimulating factor 1 receptor (Homo sapiens) (P07333 whole entry): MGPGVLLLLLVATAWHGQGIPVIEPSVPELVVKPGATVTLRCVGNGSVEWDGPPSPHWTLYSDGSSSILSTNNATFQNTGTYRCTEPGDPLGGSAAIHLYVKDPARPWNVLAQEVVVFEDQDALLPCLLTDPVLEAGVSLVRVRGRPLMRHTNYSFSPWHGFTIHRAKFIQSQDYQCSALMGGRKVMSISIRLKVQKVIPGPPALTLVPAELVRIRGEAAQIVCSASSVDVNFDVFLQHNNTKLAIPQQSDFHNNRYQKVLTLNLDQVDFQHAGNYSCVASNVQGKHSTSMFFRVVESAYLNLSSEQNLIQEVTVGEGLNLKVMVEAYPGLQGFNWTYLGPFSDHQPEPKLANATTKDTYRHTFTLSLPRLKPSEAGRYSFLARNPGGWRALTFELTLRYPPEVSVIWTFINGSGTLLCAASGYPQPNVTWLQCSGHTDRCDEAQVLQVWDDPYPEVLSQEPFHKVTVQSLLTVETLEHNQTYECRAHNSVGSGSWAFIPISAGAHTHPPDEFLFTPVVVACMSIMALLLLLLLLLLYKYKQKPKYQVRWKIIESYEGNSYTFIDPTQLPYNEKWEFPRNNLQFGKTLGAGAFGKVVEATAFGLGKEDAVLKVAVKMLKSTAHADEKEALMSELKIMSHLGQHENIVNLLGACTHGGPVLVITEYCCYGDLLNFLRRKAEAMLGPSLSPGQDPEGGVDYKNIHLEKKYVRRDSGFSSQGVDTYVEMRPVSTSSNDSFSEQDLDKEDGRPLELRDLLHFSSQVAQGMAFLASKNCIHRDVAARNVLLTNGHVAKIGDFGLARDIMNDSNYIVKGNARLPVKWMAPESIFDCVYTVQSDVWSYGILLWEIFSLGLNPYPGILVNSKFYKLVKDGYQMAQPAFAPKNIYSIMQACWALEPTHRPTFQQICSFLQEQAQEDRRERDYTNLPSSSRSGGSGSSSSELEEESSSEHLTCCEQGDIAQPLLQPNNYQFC
Sequence of Receptor-type tyrosine-protein kinase FLT3 (Homo sapiens) (P36888 whole entry): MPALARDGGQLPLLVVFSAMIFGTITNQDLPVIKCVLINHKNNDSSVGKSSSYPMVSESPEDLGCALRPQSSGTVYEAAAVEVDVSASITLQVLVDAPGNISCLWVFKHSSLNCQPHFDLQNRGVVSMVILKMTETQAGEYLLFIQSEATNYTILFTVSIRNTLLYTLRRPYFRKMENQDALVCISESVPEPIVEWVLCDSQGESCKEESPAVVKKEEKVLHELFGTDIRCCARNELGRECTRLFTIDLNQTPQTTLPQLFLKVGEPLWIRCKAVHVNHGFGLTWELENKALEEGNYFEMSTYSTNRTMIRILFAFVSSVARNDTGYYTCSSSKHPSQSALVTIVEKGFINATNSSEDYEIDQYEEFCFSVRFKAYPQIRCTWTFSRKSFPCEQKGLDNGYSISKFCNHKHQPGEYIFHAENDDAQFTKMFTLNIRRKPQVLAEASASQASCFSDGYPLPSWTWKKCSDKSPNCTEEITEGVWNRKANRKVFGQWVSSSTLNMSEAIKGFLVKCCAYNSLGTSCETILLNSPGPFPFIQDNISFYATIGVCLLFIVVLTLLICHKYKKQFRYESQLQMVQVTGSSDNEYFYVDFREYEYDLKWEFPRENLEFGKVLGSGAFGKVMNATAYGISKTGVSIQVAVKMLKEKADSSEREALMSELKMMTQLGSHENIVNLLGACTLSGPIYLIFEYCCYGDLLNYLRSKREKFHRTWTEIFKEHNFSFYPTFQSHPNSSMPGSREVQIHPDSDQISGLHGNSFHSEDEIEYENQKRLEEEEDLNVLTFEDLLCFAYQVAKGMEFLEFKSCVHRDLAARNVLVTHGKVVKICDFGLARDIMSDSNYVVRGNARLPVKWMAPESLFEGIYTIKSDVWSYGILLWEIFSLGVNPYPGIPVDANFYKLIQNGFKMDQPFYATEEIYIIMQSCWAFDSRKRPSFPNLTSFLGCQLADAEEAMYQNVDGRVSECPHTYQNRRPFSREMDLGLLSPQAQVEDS
Sequence of Platelet-derived growth factor receptor beta (Homo sapiens) (P09619 whole entry): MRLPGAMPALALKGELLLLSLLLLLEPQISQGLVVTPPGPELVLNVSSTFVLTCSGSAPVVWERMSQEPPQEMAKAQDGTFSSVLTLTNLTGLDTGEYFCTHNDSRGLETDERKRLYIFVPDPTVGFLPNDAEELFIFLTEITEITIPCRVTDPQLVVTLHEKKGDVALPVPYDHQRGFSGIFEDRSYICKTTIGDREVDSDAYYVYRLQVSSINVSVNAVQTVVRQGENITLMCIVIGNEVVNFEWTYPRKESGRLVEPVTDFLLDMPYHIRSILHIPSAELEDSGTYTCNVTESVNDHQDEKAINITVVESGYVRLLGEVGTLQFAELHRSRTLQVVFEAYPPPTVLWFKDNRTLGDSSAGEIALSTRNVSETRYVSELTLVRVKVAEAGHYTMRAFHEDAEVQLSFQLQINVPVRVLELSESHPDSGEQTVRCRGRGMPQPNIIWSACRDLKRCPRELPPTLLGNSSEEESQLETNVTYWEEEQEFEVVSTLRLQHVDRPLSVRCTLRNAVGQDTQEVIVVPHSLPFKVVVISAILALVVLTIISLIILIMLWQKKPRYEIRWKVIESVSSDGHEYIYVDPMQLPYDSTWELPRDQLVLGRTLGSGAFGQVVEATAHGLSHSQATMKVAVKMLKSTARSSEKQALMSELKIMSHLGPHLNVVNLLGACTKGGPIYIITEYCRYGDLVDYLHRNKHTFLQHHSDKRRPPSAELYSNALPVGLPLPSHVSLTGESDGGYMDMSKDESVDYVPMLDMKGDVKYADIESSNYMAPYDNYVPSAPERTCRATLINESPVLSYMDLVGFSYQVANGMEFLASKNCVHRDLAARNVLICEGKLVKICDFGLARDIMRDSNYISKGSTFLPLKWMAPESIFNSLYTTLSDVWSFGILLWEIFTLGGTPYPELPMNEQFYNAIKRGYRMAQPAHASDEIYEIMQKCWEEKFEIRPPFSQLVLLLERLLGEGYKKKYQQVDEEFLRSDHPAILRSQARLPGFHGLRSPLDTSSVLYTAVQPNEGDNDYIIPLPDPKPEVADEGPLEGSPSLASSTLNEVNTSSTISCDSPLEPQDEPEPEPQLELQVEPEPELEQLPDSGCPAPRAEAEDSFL
Sequence of Dual specificity mitogen-activated protein kinase kinase 1 (Homo sapiens) (Q02750 whole entry): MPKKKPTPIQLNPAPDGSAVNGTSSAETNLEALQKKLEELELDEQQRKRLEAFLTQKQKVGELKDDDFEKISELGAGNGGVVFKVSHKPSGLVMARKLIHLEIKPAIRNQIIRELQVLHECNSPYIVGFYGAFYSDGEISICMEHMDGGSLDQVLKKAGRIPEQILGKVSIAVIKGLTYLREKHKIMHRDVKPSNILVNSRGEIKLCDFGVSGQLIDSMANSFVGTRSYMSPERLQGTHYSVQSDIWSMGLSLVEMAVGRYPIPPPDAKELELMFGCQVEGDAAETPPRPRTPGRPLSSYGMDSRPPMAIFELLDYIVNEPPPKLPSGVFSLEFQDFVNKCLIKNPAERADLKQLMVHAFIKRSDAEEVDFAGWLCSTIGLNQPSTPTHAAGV

Regarding `COc1ccc(-c2nn(-c3cccc(NC(=O)Nc4cccc(C(F)(F)F)c4)c3)cc2-c2ccncc2)cc1Cl`, in data set [1], 12.2 µM corresponded to half-maximal inhibition (IC50).
As to `COc1ccc(-c2nn(-c3cccc(NC(=O)c4ccc(Cl)c(Cl)c4)c3)cc2-c2ccncc2)cc1Cl`, the IC50 (in general, the concentration at which inhibition is half-maximal) in data set [1] was 1.29 µM.
Take `CCN(CC)CCOC(=O)c1ccc(N)cc1` [PROCAINE]: the remaining at 0.5 h, 10 µM in data set [2] came to 89.9%; in data set [5], 1.2%. For the same compound, the remaining at 2 h, 10 µM turned out to be 0.2% in [3] and 42.7% in data set [4].
Regarding `O=C(Nc1cccc(-n2cc(-c3ccncc3)c(-c3ccc(O)c(Cl)c3)n2)c1)Nc1ccc(Cl)c(Cl)c1`, in [1], the IC50 is 14.4 µM.
Compound `COc1ccc(-c2nn(-c3cccc(NC(=O)c4ccc(N5CCOCC5)c(C(F)(F)F)c4)c3)cc2-c2ccncc2)cc1Cl` yielded an IC50 in [1] of 6.07 µM.
In data set [1], `O=C(Nc1cccc(-n2cc(-c3ccncc3)c(-c3ccc(O)c(Cl)c3)n2)c1)Nc1cccc(C(F)(F)F)c1` gave an IC50 of more than 30 µM.
`COc1ccc(-c2nn(-c3cccc(NC(=O)Nc4ccccc4)c3)cc2-c2ccncc2)cc1Cl` showed an IC50 in [1] of 4 µM.
Take `COc1ccc(-c2nn(-c3cccc(NC(=O)Nc4cc(C(F)(F)F)cc(C(F)(F)F)c4)c3)cc2-c2ccncc2)cc1Cl`: the inhibition (commonly the drop in the measured response relative to a control, in per cent) in data set [6] is 4.66%; in data set [7], 4.08%; in data set [8], 5.95%; in data set [9], -6.35%; in data set [10] it was -3.14%; in data set [12], 35.8%. Moreover, the inhibition in [13] was -4.12%; in data set [14], 22.2%; in data set [15] it was 8.99%; in data set [16], -8.43%; in data set [17], 57%; in data set [18], 2.7%. Moreover, the inhibition in data set [19] is 20.1%; in data set [20], 40.4%; in [21], -7.26%; in data set [22] it was 8.96%; in [23], -3.13%; in data set [24] it was 2.48%. The inhibition in data set [25] is 2.65%; in data set [26], 86.4%; in data set [27], 0.81%; in data set [28], -7.69%; in [29], 9%; in data set [30] it was -4.38%. Besides, the inhibition in data set [31] is 48.5%; in [32] it was 0.29%. Besides, the EC50 (commonly the concentration giving half of the maximal effect) in data set [11] stood at 1.94 µM. For the same compound, it took 0.307 µM to reach half-maximal inhibition in data set [1] (IC50).
`O=C(O)Cc1ccccc1Nc1c(Cl)cccc1Cl` [DICLOFENAC]: the inhibition in vivo (commonly the share of the control response that was lost under treatment) at 50 mg/kg in [33] was determined as 71.3%.
`O=C(Nc1cccc(-n2cc(-c3ccncc3)c(-c3ccc(O)c(Cl)c3)n2)c1)Nc1cc(C(F)(F)F)cc(C(F)(F)F)c1` registered an IC50 in data set [1] of more than 30 µM.
In [34], `C[S+]([O-])c1ccc(-c2nc(-c3ccc(F)cc3)c(-c3ccncc3)[nH]2)cc1` (stereo not given) [SB-203580] gave an IC50 of 0.02 µM.
In data set [1], `COc1ccc(-c2nn(-c3cccc(NC(=O)c4cc(C(F)(F)F)cc(C(F)(F)F)c4)c3)cc2-c2ccncc2)cc1Cl` gave an IC50 of 2.33 µM. That is a single-digit micromolar value.
Still for that read-out and setting: under `O=C(Nc1cccc(-n2cc(-c3ccncc3)c(-c3ccc(O)c(Cl)c3)n2)c1)c1cccc(C(F)(F)F)c1` stands more than 30 µM; under `O=C(Nc1cccc(-n2cc(-c3ccncc3)c(-c3ccc(O)c(Cl)c3)n2)c1)c1cc(C(F)(F)F)cc(C(F)(F)F)c1`, more than 30 µM.
Compound `O=C(Nc1cccc(-n2cc(-c3ccncc3)c(-c3ccc(O)c(Cl)c3)n2)c1)Nc1ccc(Cl)c(C(F)(F)F)c1` showed an IC50 in data set [1] of more than 30 µM.
Same read-out and setting: under `O=C(Nc1cccc(-n2cc(-c3ccncc3)c(-c3ccc(O)c(Cl)c3)n2)c1)c1ccc(N2CCOCC2)c(C(F)(F)F)c1` stands more than 30 µM; under `O=C(Nc1ccccc1)Nc1cccc(-n2cc(-c3ccncc3)c(-c3ccc(O)c(Cl)c3)n2)c1`, more than 30 µM; under `COc1ccc(-c2nn(-c3cccc(NC(=O)Nc4ccc(Cl)c(Cl)c4)c3)cc2-c2ccncc2)cc1Cl`, 2.83 µM.
As for `COc1cccc(-c2nn(-c3ccccc3)cc2-c2ccncc2)c1`, in data set [35], the IC50 was determined as 0.515 µM.
`COc1ccc(-c2nn(-c3cccc(NC(=O)Nc4ccc(Cl)c(C(F)(F)F)c4)c3)cc2-c2ccncc2)cc1Cl` yielded an IC50 in data set [1] of 8.54 µM.
Turning to `COc1ccc([C@@H]2Sc3ccccc3N(CCN(C)C)C(=O)[C@@H]2OC(C)=O)cc1` [DILTIAZEM], the remaining at 0.5 h, 10 µM in data set [2] was determined as 86.3%; in [5], 91.5%. The remaining at 2 h, 10 µM is 89.3% in [3] and 45.4% in data set [4].
For the compound `O=C(Nc1cccc(-n2cc(-c3ccncc3)c(-c3ccc(O)c(Cl)c3)n2)c1)c1ccc(Cl)c(Cl)c1`, the IC50 in data set [1] is 14.3 µM. In other words, the double-digit micromolar range.

The values above are taken from ChEMBL document CHEMBL4311959, “Discovery of a potent p38α/MAPK14 kinase inhibitor: Synthesis, in vitro/in vivo biological evaluation, and docking studies” (Eur J Med Chem, 2019).
